Experimental findings from the METLIN SMRT retention time set (Domingo-Almenara et al. 2019) are described below.

This series can be described thus: gradient 5% acetonitrile 3 min, to 50% in 2 min, to 85% in 15 min, held 3 min, 100 µL/min. Conditions: column: Zorbax Extend-C18 2.1 x 50 mm; eluents: water / acetonitrile, 0.1% formic acid. The method, boiled down: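 Retention times of pure standards were taken from adduct peaks that were selected by computer and manually inspected. Over 3 months, mixtures of ~100 molecules were run by HPLC–quadrupole time-of-flight mass spectrometry in positive and negative ionization mode. The Zorbax Extend-C18 column (2.1 × 50 mm, 1.8 μm) ran at 100 μL/min in water and acetonitrile, each containing 0.1% formic acid, with 40 μL dead volume and 900 μL dwell volume.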
`COc1ccc(CNC(=O)N2CCN(Cc3nc4ccc(Cl)cc4o3)CC2)cc1` came in with an RP-LC retention time of 711 s. As for `Cc1ccc(C)c(NC(=O)CCCN2C(=O)COc3ccc(C)cc32)c1`, the RP-LC retention time is 978 s. Regarding `COc1ccc(Cc2nc3nccc(-c4ccc(OC)cc4)n3n2)cc1`, the RP-LC retention time is 878 s. With `O=C(NCCc1csc(C2CCCN(C(=O)CC3CCCC3)C2)n1)C1CC1` (centres undefined) the figure was 757 s; with `Cc1nc([C@@H]2CN(Cc3ccc(Br)o3)C[C@H]2C(N)=O)n[nH]1`, 556 s; with `CCN(CC)C(=O)c1cc(C)nc2c1c(=O)n(Cc1nc(-c3ccccc3)oc1C)c(=O)n2C`, 996 s. Turning to `CC(CNC(=O)c1cc2n(n1)CC(C)(C(=O)NC1CCCC1)N(C)C2=O)c1ccccc1` (centres undefined), the RP-LC retention time was found to be 884 s. With `O=S(=O)(c1ccccc1F)N1CCC(c2noc(-c3cccc(F)c3)n2)CC1` the figure was 1110 s; with `CCCN(C)c1nccnc1OC1CCN(C(=O)c2ccoc2)C1` (centres undefined), 723 s; with `Cc1nc(CCNC(=O)C2CCN(S(=O)(=O)c3ccc(C4CCCCC4)cc3)CC2)cs1`, 981 s. The molecule `O=C(Nc1ccc(Cl)cc1F)C1CCCN(C(=O)c2cc(-c3ccccn3)n[nH]2)C1` (centres undefined) came in with an RP-LC retention time of 740 s. The figure for `CCOC(=O)c1ccc2ncc(C(=O)OCC)c(NCCN(C)C)c2c1` is 569 s; for `CCCCC(=O)Nc1nc(-c2ccc3c(c2)NC(=O)CO3)c(C)s1` it is 839 s; for `CC(=O)c1ccc(NS(C)(=O)=O)c(Oc2ccc(F)cc2F)c1` it is 954 s.

In turn, `CN1C(=O)c2ccccc2Oc2ccc(C(=O)N3CCCC3)cc21` showed an RP-LC retention time of 719 s.

Molecule `COc1ccc(-c2nc(CCS(=O)(=O)c3ccc(Cl)cc3)no2)cc1OC` gave an RP-LC retention time of 946 s.

`CSc1cccc(NC(=O)N2CCN(Cc3nc4ccc(C)cc4o3)CC2)c1` displayed an RP-LC retention time of 776 s. As to `CCOc1ccccc1NC(=O)N1CCc2nc[nH]c2C1`, the RP-LC retention time worked out at 577 s.

Take `Cc1c(Cl)cccc1NC(=O)NCCc1cn(CC(C)C)c2ncccc12`: the RP-LC retention time came out at 902 s. The molecule `CCc1ccc(NC(=O)Cn2c(=O)c(CCC(=O)NCC(C)C)nc3ccccc32)cc1` had an RP-LC retention time of 878 s. Turning to `C=CCN(CC=C)c1nc(-c2ccc(Cl)cc2Cl)nc2ccccc12`, the RP-LC retention time was found to be 933 s. The molecule `O=C(C1CCN(c2ncnc3c2nc2n3CCCCC2)CC1)N1CCN(c2ncccn2)CC1` registered an RP-LC retention time of 669 s. `CC(C)CNC(=O)c1nn(-c2ccc(F)cc2)nc1CO` returned an RP-LC retention time of 888 s.

`CCCNC(=O)c1ccc2ncnc(N3CCCC3)c2c1` yielded an RP-LC retention time of 576 s. As for `CNC(=O)C1CC(=O)N(c2cccc(C)c2)C1` (centres undefined), the RP-LC retention time came out at 637 s. Consider `O=C(Cn1cnc2nc(N3CCCC(C(=O)NC4CC4)C3)sc2c1=O)Nc1ccc(Cl)cc1` (centres undefined), for which the RP-LC retention time amounted to 721 s. As to `CN(CC#N)C(=O)c1ccc(N2CCc3ccccc32)s1`, the RP-LC retention time stood at 913 s. The figure for `Cc1ncc2c(n1)C[C@@H]1CC[C@H]2N1C(=O)NCc1ccccc1` is 642 s; for `CO/N=C(\C(=O)N[C@@H]1C(=O)N2C(C(=O)OCOC(=O)C(C)(C)C)=C(/C=C\c3scnc3C)CS[C@H]12)c1csc(N)n1` it is 792 s; for `c1ccc(CN2CCC3(CCCc4ccccc43)CC2)cc1` it is 834 s. Turning to `O=C(NCCCn1ncccc1=O)c1coc(NC(=O)c2cnccn2)n1`, the RP-LC retention time came to 554 s. Molecule `COCCCNC(=O)C1CCN(c2nc3ccc(-c4ccccc4)nc3s2)CC1` came in with an RP-LC retention time of 835 s. Regarding `O=C(c1cnccn1)N1CCC(N2C(=O)C(OCC3CC3)C23CCOCC3)CC1` (centres undefined), the RP-LC retention time turned out to be 607 s. The molecule `Cc1ccc(-c2csc(Cc3nc(-c4ccccc4Cl)no3)n2)cc1` showed an RP-LC retention time of 1280 s. The molecule `Cn1cc(S(=O)(=O)N2CCCCC2)cc1C(=O)N1CCN(c2ccccc2F)CC1` came in with an RP-LC retention time of 961 s. With `COc1cc(NC(=O)N2CCC(n3cnc4cccnc43)CC2)cc(OC)c1` the figure was 638 s. As to `COc1ccc(-c2noc(C3CC(=O)N(c4ccc(C)c(Cl)c4)C3)n2)cc1` (centres undefined), the RP-LC retention time came out at 1050 s. Regarding `CCNC(=O)N1CCCC(c2cccc(C(=O)NC3CCCCCC3)c2)C1` (centres undefined), the RP-LC retention time was found to be 876 s. The figure for `COc1ccc(-c2nc(NC(=O)CS(=O)(=O)c3ccc(C)cc3)sc2C)cc1` is 1010 s. With `O=C(CSc1ncnc2c1cnn2-c1ccc(F)cc1)Nc1nc2ccccc2s1` the figure was 1020 s. On to `CSc1ccc(CNC(=O)C2CCN(c3nnc(-c4ccc(C)cc4)o3)CC2)cc1`, for which the RP-LC retention time was 931 s. Take `Cc1[nH]c(C)c(S(=O)(=O)N2CCC(C(=O)Nc3ccc(Cl)cc3)CC2)c1C(=O)N1CCCC1`: the RP-LC retention time is 788 s. In turn, `Cc1ccn2c(NC(=O)c3ccc(C)c(C)c3)c(-c3ccc(F)cc3)nc2c1` registered an RP-LC retention time of 737 s. `Cc1cc2nn(CC(=O)Nc3ccc(F)cc3)c(=O)n2c(Nc2ccc(F)cc2)n1` gave an RP-LC retention time of 972 s. In turn, `COc1ccccc1-c1noc(C2CCCN2C(=O)Cc2ccc(F)cc2)n1` (centres undefined) registered an RP-LC retention time of 866 s.

`O=C(CN1CCCc2nc(C3CC3)ncc2C1=O)NCCCN1CCCC1=O` came in with an RP-LC retention time of 594 s. Molecule `COc1cc(C(=O)Oc2ccc(/C=C/c3ccccn3)cc2)cc(OC)c1OC` had an RP-LC retention time of 689 s. In turn, `Cc1ccc(NC(=O)C2CCCN(c3ncnc4c3nc3n4CCCCC3)C2)c(Br)c1` (centres undefined) had an RP-LC retention time of 930 s. Regarding `Cc1sc(NC(=O)c2ccco2)nc1-c1ccc2c(c1)NC(=O)C(C)O2` (centres undefined), the RP-LC retention time stood at 814 s. With `CCN(CC)CCSC(=O)C(c1ccccc1)c1ccccc1` the figure was 765 s; with `CC(C)C(=O)Nc1ccc(C2(C(=O)NCCN3CCc4ccccc4C3)CCCCC2)cc1`, 732 s. `O=C(NCc1cccnc1-c1ccc(F)cc1)c1ccc(Br)cc1` showed an RP-LC retention time of 735 s. For `Cc1cc(C)cc(-c2nnc(Cc3nc(-c4cccc(Br)c4)no3)o2)c1`, the RP-LC retention time was found to be 1240 s. The molecule `COc1ccc(-n2ncc(C(=O)N3CCN(C(=O)c4ccco4)CC3)c2-n2cccc2)cc1` yielded an RP-LC retention time of 717 s. Molecule `COc1ccc(C2Cn3cnc(C(=O)N4CCC(C(=O)NCc5ccco5)CC4)c3CO2)cc1` (centres undefined) returned an RP-LC retention time of 698 s.

In the case of `Clc1ccc2nc(-c3ccc(N4CCOCC4)cc3)c(Nc3ccc4c(c3)OCO4)n2c1`, the RP-LC retention time worked out at 715 s. `Cc1ccc(C)c(Cn2nc3c(S(=O)(=O)N4CCc5ccccc5C4)cccn3c2=O)c1` had an RP-LC retention time of 1070 s. The figure for `CCOc1ccc(S(=O)(=O)N2CCC(C(=O)NC3CCCCC3)CC2)cc1` is 922 s; for `Cc1cc2c(=O)n(CC(=O)Nc3ccc(Cl)cc3C)ccc2s1` it is 833 s. The figure for `CC(C)n1cnc2cc(CNC(=O)c3ccco3)ccc21` is 568 s; for `Cc1ccc(-c2noc(CN3N=NC4C(=O)N(c5ccc6c(c5)CCC6)C(=O)C43)n2)cc1` (centres undefined) it is 1110 s; for `O=C(CSc1cc(N2CCCC2)ncn1)NCc1cccs1` it is 601 s. Regarding `Cc1ccccc1-c1noc(C2CCCN2C(=O)Nc2ccccc2Cl)n1` (centres undefined), the RP-LC retention time came out at 606 s.

The molecule `Cc1ccc(NC(=O)C2CCN(S(=O)(=O)c3ccc4c(c3)sc(=O)n4C)CC2)cc1F` came in with an RP-LC retention time of 933 s.

`CC(/C=C/c1cccc(Oc2ccc(F)cc2)c1)N(O)C(N)=O` (centres undefined) gave an RP-LC retention time of 927 s. For `O=S(=O)(NCc1ccccn1)c1ccc(F)c(Cl)c1`, the RP-LC retention time was 643 s.

Take `CCCNC(=O)c1ccc(-c2csc(C)n2)cc1`: the RP-LC retention time amounted to 754 s. `O=C(NCC(c1cccnc1)c1c[nH]c2ccccc12)Nc1ccc(F)cc1F` (centres undefined) returned an RP-LC retention time of 674 s.

The molecule `CCC1CN(CC(=O)NCCN(CC)CC)c2ccccc2S1` (centres undefined) had an RP-LC retention time of 680 s.

In turn, `COc1cc(NC(=O)c2cc(C(C)C)n3nccc3n2)cc(OC)c1OC` gave an RP-LC retention time of 915 s. With `CC(C)CCNC(=O)NCCn1c(-c2ccc(F)cc2)nc2ccccc21` the figure was 650 s; with `Cc1ccc(CNC(=O)C2CCN(S(=O)(=O)c3ccc4c(c3)CCCC(=O)N4)CC2)cc1`, 752 s. `Cc1cc2nc3sc(C(=O)NCCCN4CCN(C)CC4)cc(=O)n3c2cc1C` yielded an RP-LC retention time of 730 s. `CCCCNC(=O)c1ccc(-n2ccnc2SCC(=O)Nc2ccccc2)cc1` came in with an RP-LC retention time of 746 s. The figure for `Cc1nc2c(sc3nc(-c4ccccc4)ccc32)c(=O)n1CC(=O)Nc1ccccc1Cl` is 1090 s; for `CC(C)(C)c1nnc(-c2ccc3c(c2)OCO3)o1` it is 900 s; for `Cc1cccc(NC(=O)N2CCCC(Cn3cnc4cccnc43)C2)c1C` (centres undefined) it is 672 s. With `CC(C)C(=O)OC[C@H]1O[C@@H](n2ccc(N)nc2=O)[C@](C)(F)[C@@H]1OC(=O)C(C)C` the figure was 799 s; with `O=C(Nc1nc(CC(=O)N2CCCc3ccccc32)cs1)c1ccco1`, 743 s.
